The text below walks through data of PubChem BioAssay AID248 (DTP/NCI, 2004).

Molecules are shown by their SMILES. Several values for one entry are separate records, joined by “and”; a condition that tells them apart may be missing. Equal entries are not always repeated. Toxic doses and inconclusive results are not listed. Peptide text beside a SMILES is read from it.

The test system of this assay is L1210 leukemia ip in BDF1 mice, survival T/C. In words: NCI In Vivo Anticancer Drug Screen. Data for tumor model L1210 Leukemia (intraperitoneal) in B6D2F1 (BDF1) mice. Particulars: endpoint: mean survival time, higher = longer survival. The procedure, abridged: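 Tumor was transplanted into mice, which were then dosed with test compound or vehicle alone. Survival was recorded for each group, and the treated figure was expressed relative to the control figure.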

The mark [1] stands for this setting: dose: 50.0 mg/kg/injection, schedule: Q01DX009 (ip), vehicle: saline.
Where [2] appears, read: dose: 50.0 mg/kg/injection, schedule: Q01DX009 (ip), vehicle: saline with Tween-80.
The mark [3] stands for this setting: dose: 100.0 mg/kg/injection, schedule: Q01DX009 (ip), vehicle: saline with Tween-80.
[4] abbreviates: dose: 200.0 mg/kg/injection, schedule: Q01DX009 (ip), vehicle: saline with Tween-80.
Where [5] appears, read: dose: 100.0 mg/kg/injection, schedule: Q01DX009 (ip), vehicle: Klucel (hydroxypropylcellulose) (HPC).
The mark [6] stands for this setting: dose: 200.0 mg/kg/injection, schedule: Q01DX009 (ip), vehicle: Klucel (hydroxypropylcellulose) (HPC).
Setting [7] is: dose: 400.0 mg/kg/injection, schedule: Q01DX009 (ip), vehicle: Klucel (hydroxypropylcellulose) (HPC).
Where [8] appears, read: dose: 100.0 mg/kg/injection, schedule: Q01DX009 (ip), vehicle: saline.
The mark [9] stands for this setting: dose: 200.0 mg/kg/injection, schedule: Q01DX009 (ip), vehicle: saline.

Regarding `Nc1ccc(Nc2ccccc2)c(N)c1`, the T/C is, setting by setting: under setting [1], 98 % of control; (dose: 75.0 mg/kg/injection, schedule: Q01DX009 (ip), vehicle: saline) 102 % of control; (dose: 75.0 mg/kg/injection, schedule: Q04DX003 (ip), vehicle: saline) 103 % of control; (dose: 150.0 mg/kg/injection, schedule: Q04DX003 (ip), vehicle: saline) 96 % of control.
With `CN(C)c1cc2c3c(c1)CCCN3CCC2`, the T/C (dose: 6.25 mg/kg/injection, schedule: Q01DX001 (ip), vehicle: saline) was 108 % of control and the T/C (dose: 12.5 mg/kg/injection, schedule: Q01DX001 (ip), vehicle: saline) is 101 % of control.
On to `CNc1nc(Cl)nc2ccccc12`, for which the T/C by setting is: under setting [2], 105 % of control; under setting [3], 112 % of control; under setting [4], 102 % of control.
`CCCNC(=NC)c1ccc(NC(=O)c2ccc(C(=O)Nc3ccc(C(=NC)NCCC)cc3)cc2)cc1`: the T/C was 94 % of control (dose: 1.6 mg/kg/injection, schedule: Q01DX Z (ip), vehicle: saline); 111 % of control (dose: 2.4 mg/kg/injection, schedule: Q01DX Z (ip), vehicle: saline); 107 % of control and 120 % of control (dose: 3.6 mg/kg/injection, schedule: Q01DX Z (ip), vehicle: saline); 156 % of control and 162 % of control (dose: 5.5 mg/kg/injection, schedule: Q01DX Z (ip), vehicle: saline); 151 % of control and 172 % of control (dose: 8.3 mg/kg/injection, schedule: Q01DX Z (ip), vehicle: saline); 103 % of control (dose: 12.5 mg/kg/injection, schedule: Q## X000 (oral), vehicle: saline). The T/C (dose: 25.0 mg/kg/injection, schedule: Q## X000 (oral), vehicle: saline) was 100 % of control; the T/C (dose: 50.0 mg/kg/injection, schedule: Q## X000 (oral), vehicle: saline) is 101 % of control; the T/C (dose: 250.0 mg/kg/injection, schedule: Q01DX010 (oral), vehicle: saline) was 107 % of control; the T/C (dose: 500.0 mg/kg/injection, schedule: Q01DX010 (oral), vehicle: saline) was 114 % of control.
Take `COc1ccccc1NC(=O)c1ccc(Cl)cc1Cl`: the T/C is 98 % of control under setting [5]; 100 % of control (dose: 100.0 mg/kg/injection, schedule: Q04DX003 (ip), vehicle: Klucel (hydroxypropylcellulose) (HPC)); 93 % of control under setting [6]; 96 % of control (dose: 200.0 mg/kg/injection, schedule: Q04DX003 (ip), vehicle: Klucel (hydroxypropylcellulose) (HPC)); 93 % of control under setting [7]; 97 % of control (dose: 400.0 mg/kg/injection, schedule: Q04DX003 (ip), vehicle: Klucel (hydroxypropylcellulose) (HPC)).
Regarding `NC(=O)C(=O)NO`, the T/C reads like this: (dose: 100.0 mg/kg/injection, schedule: Q01DX001 (ip), vehicle: saline) 97 % of control; (dose: 200.0 mg/kg/injection, schedule: Q01DX001 (ip), vehicle: saline) 106 % of control; (dose: 400.0 mg/kg/injection, schedule: Q01DX001 (ip), vehicle: saline) 105 % of control.
For the compound `COc1ccc(Cl)cc1NC(=O)N1CCN(c2ccccc2)CC1`, the T/C reads like this: under setting [5], 120 % of control; (dose: 100.0 mg/kg/injection, schedule: Q04DX003 (ip), vehicle: saline) 101 % of control; under setting [6], 97 % of control; (dose: 200.0 mg/kg/injection, schedule: Q04DX003 (ip), vehicle: saline) 101 % of control; under setting [7], 111 % of control; (dose: 400.0 mg/kg/injection, schedule: Q04DX003 (ip), vehicle: saline) 97 % of control.
Take `O=C(Nc1ccc(Cl)cc1Cl)Nc1cc(C(F)(F)F)ccc1Cl`: the T/C was 98 % of control under setting [8]; 95 % of control under setting [9]; 92 % of control (dose: 400.0 mg/kg/injection, schedule: Q01DX009 (ip), vehicle: saline).
For `COC1OC2CSC(=S)OC2C(OC)C1OC` (configuration not stated), the T/C (dose: 25.0 mg/kg/injection, schedule: Q04DX002 (ip), vehicle: saline) is 100 % of control; the T/C (dose: 50.0 mg/kg/injection, schedule: Q04DX002 (ip), vehicle: saline) is 92 % of control; the T/C (dose: 100.0 mg/kg/injection, schedule: Q04DX002 (ip), vehicle: saline) is 103 % of control; the T/C (dose: 200.0 mg/kg/injection, schedule: Q04DX002 (ip), vehicle: saline) is 102 % of control; the T/C (dose: 400.0 mg/kg/injection, schedule: Q04DX002 (ip), vehicle: saline) is 102 % of control.
On to `CC1CC(C)(C)N=C(CCC2CCCCCC2=O)O1` (configuration not stated), for which the T/C reads like this: (dose: 25.0 mg/kg/injection, schedule: Q01DX009 (ip), vehicle: saline) 98 % of control; under setting [1], 102 % of control; (dose: 50.0 mg/kg/injection, schedule: Q04DX003 (ip), vehicle: saline with Tween-80) 96 % of control; under setting [8], 100 % of control; (dose: 100.0 mg/kg/injection, schedule: Q04DX003 (ip), vehicle: saline with Tween-80) 93 % of control; under setting [9], 101 % of control. Under “dose: 200.0 mg/kg/injection, schedule: Q04DX003 (ip), vehicle: saline with Tween-80”, the T/C is 96 % of control.
In the case of `C(=C\CSc1ccccc1)/CSc1ccccc1`, the T/C by setting is: (dose: 100.0 mg/kg/injection, schedule: Q04DX002 (ip), vehicle: Klucel (hydroxypropylcellulose) (HPC)) 97 % of control; (dose: 200.0 mg/kg/injection, schedule: Q04DX002 (ip), vehicle: Klucel (hydroxypropylcellulose) (HPC)) 94 % of control; (dose: 400.0 mg/kg/injection, schedule: Q04DX002 (ip), vehicle: Klucel (hydroxypropylcellulose) (HPC)) 97 % of control.
Consider `CCCCCC/C=N/Nc1ccc([N+](=O)[O-])cc1[N+](=O)[O-]`, for which the T/C runs as follows: under setting [2], 101 % of control; under setting [3], 102 % of control; under setting [4], 91 % of control.
For `CCC(C)Sc1ccc(C)cc1` (configuration not stated), the T/C by setting is: (dose: 75.0 mg/kg/injection, schedule: Q01DX009 (ip), vehicle: Klucel (hydroxypropylcellulose) (HPC)) 98 % of control; (dose: 150.0 mg/kg/injection, schedule: Q01DX009 (ip), vehicle: Klucel (hydroxypropylcellulose) (HPC)) 102 % of control; (dose: 300.0 mg/kg/injection, schedule: Q01DX009 (ip), vehicle: Klucel (hydroxypropylcellulose) (HPC)) 93 % of control.
Take `NCCCCC(N)C(=O)NC(CCCN=C(N)N)C(=O)O` (stereo not drawn) (H-Lys-Arg-OH; configuration not given here): the T/C reads like this: (dose: 50.0 mg/kg/injection, schedule: Q04DX003 (ip), vehicle: water) 117 % of control; (dose: 100.0 mg/kg/injection, schedule: Q01DX009 (ip), vehicle: water) 108 % of control; (dose: 100.0 mg/kg/injection, schedule: Q04DX003 (ip), vehicle: water) 121 % of control; (dose: 200.0 mg/kg/injection, schedule: Q01DX009 (ip), vehicle: water) 97 % of control; (dose: 200.0 mg/kg/injection, schedule: Q04DX003 (ip), vehicle: water) 111 % of control; (dose: 400.0 mg/kg/injection, schedule: Q04DX003 (ip), vehicle: water) 115 % of control.
For `O=[N+]([O-])c1c[nH]c2ncnc(SCc3ccccc3)c12`, the T/C is, setting by setting: (dose: 100.0 mg/kg/injection, schedule: Q01DX001 (ip), vehicle: carboxymethylcellulose (CMC)) 87 % of control; (dose: 200.0 mg/kg/injection, schedule: Q01DX001 (ip), vehicle: carboxymethylcellulose (CMC)) 93 % of control; (dose: 400.0 mg/kg/injection, schedule: Q01DX001 (ip), vehicle: carboxymethylcellulose (CMC)) 91 % of control.
Turning to `C1=CC2CC1C1CC21` (configuration not stated), the T/C runs as follows: (dose: 75.0 mg/kg/injection, schedule: Q01DX001 (ip), vehicle: saline) 100 % of control; (dose: 150.0 mg/kg/injection, schedule: Q01DX001 (ip), vehicle: saline) 96 % of control; (dose: 300.0 mg/kg/injection, schedule: Q01DX001 (ip), vehicle: saline) 96 % of control.
With `CCc1cc[c]([Hg][Cl])o1`, the T/C was 100 % of control (dose: 12.5 mg/kg/injection, schedule: Q01DX001 (ip), vehicle: other) and 100 % of control (dose: 25.0 mg/kg/injection, schedule: Q01DX001 (ip), vehicle: other).
